Measured values taken from patent US8440800B2, “Compositions for reducing cell adhesion to bubbles” (The Ohio State University Research Foundation, priority 2006, dated 2013).
Read-outs that look alike come from different tables or passages of the source.

Key:
[1] = CMC and static surface tension, maximum bubble pressure method; assay type: physicochemical; conditions: for CMC: 37° C., CD CHO-A medium; for CMC SURFACE TENSION: cell culture medium at 37° C.
Protocol: (§1) The CMC depends on temperature and solution components. Given the significant number of components in typical cell culture media, the CMC of the comparative materials and the protective compositions were determined at 37° C. and in CD CHO-A medium using a SensaDyne bubble tensiometer PC500L (Chem-Dyne Research Corporation, Mesa, Ariz.), which uses the maximum bubble pressure method. The time between initial bubble formation and attainment of maximum bubble pressure, “surface age”, can be varied by changing the gas flow rate. When the static surface tensions were measured, the surface age were adjusted to approximate 1 s, which was enough for small molecule surfactants to migrate to the bubble surface and potentially reach equilibrium. When the dynamic surface tensions were measured, the surface age was varied in the range of about 0.1 to about 3.0 seconds.

[2] = system: Chinese Hamster Ovary cells (CHO) cell line K1; experiment: Fluorescent cytotoxicity screening, 96-well plates, calcein AM; assay type: cell-based
Protocol: (§2) Chinese Hamster Ovary cells (CHO) cell line K1 (ATCC CCL-61) were used. The cells were initially cultured in Ham F-12 culture medium supplemented with 10% v/v fetal bovine serum (Sigma Aldrich Co., St. Louis, Mo.) in T-75 flasks. Then the cells were gradually adapted to chemically-defined medium (CD CHO-A, Invitrogen, Carlsbad, Calif.), which contain no PF-68. The cells were subcultured every 3-4 days and maintained at 37° C. incubator with 5% CO2. All the cultures were anchorage-dependent.
The materials were compared at the same concentration relative to the specific surfactants critical micelle concentration, CMC, i.e., 0.01 CMC or 0.1 CMC. In order to minimize the effect of potential adsorption during filter sterilization, the concentrated material solutions were applied, and then diluted to desired concentration at time of use.
Black, clear-bottom 96-well plates (Fisher Scientific, Hampton, N.H.) were used in the screening experiments. In each well, 150 μl cell suspensions with a total cell number of approximately 10^4 were inoculated along with the test materials and subsequently cultured in a 37° C. incubator with 5% CO2. After 48 hours, the supernatant was carefully removed while the attached CHO cells remained at the bottom of the well. 100 μl of 4 μM calcein AM solution (Invitrogen, Carlsbad, Calif.), a fluorescence probe, was added to each well and incubated for one hour at 37° C. in order to quickly assess cell growth (Yang et al., 2002). Calcein AM is an esterase substrate which can be converted into a polar, fluorescent product by an intracellular enzyme. The fluorescence density was read by a Cytofluor 4000 (Applied Biosystems, Foster City, Calif.). Six replications were performed for each condition (type of material and concentration) and the positions on the 96 well plates were randomized. A reasonable linear relationship between cell number (less than 5×10^5 per well) and fluorescence density was confirmed before screening experiments; however, a control was created with each specific experiment.

[3] = Dynamic surface tension in cell culture medium; assay type: physicochemical; conditions: 0.28 g/L
Protocol: as §1

[4] = system: Chinese Hamster Ovary cells (CHO) cell line K1; experiment: Cytotoxicity studies in T25 flasks (cell growth); assay type: cell-based; conditions: T-25 flasks, 48 hours; concentrations of FIG. 6
Protocol: as §2
Various candidate materials from the 96 well plate assays were further investigated using T25 flasks. The concentration of the candidate materials were tested at discrete concentration, which depended on the specific material, but at the highest concentration exceeded 0.1 CMC. In all cases, tested, a concentration at which cell growth began to be inhibited was detected.
Additional protective compositions, Nonyl maltopyranoside (NM) and CYMAL®-4 (CM4), were purchased from Anatace Inc. (Maumee, Ohio). The inoculation was 3.0×10^5 cells/ml. After 48 hours, the cells were harvested by Accutase® (Innovative Cell Technologies Inc., San Diego, Calif.) and counted by a hemocytometer. Besides cell growth, the morphology of cells was also monitored by an inverted microscope (Nikon Ecllipse TE2000-U, Melville, N.Y.).

CHO K1 cells = experiment: Bubble-cell interactions, cell enrichment factor in foam (bubble collector, LDH); assay type: cell-based, Chinese Hamster
Protocol: An improved bubble collector device described by Ma et al. (2004) was used to quantitatively study cell entrapment in the foam. Specifically, this device can isolate bubble rupture events from foam formation vessel as well as maintain a plug-flow of bubbles from the foam layer into the bubble collection tube.
The cell concentration was determined using the lactate dehydrogenase (LDH) assay (CytoTox 96, Promega, Madison, Wis.). 9% (w/v) Triton X-100 solution was added to the cell suspension to be evaluated at a ratio of 1 to 10, and subsequently incubated at 37° C. for 45 minutes in order to lyse all the cells. A standard curve between LDH absorption and cell concentration by hemocytometer measurement was made for each set of experiments. The foam liquid volume was also measured by weighing the collect tube before and after experiments, assuming a liquid density of 1.0 g/ml.
For the bubble column studies, CHO K1 cells, grown in CD-CHO medium, were harvested during exponential phase of growth in spinner flasks. […]
Two spargers, a 22 gauge needle and a sintered glass (ACE glass, Vineland, N.J.) provided bubbles which produced, as expected, two different bubble sizes. The bubbles sizes were determined using a SCIMAX CCD digital camera (MVIA, Monaca, Pa.) and an infinity lens (ISCO Precision Optics GMBH, Germany) in a glass square column. […]

[5] = Bubble size for two spargers (CCD camera); assay type: physicochemical
Protocol: Two spargers, a 22 gauge needle and a sintered glass (ACE glass, Vineland, N.J.) provided bubbles which produced, as expected, two different bubble sizes. The bubbles sizes were determined using a SCIMAX CCD digital camera (MVIA, Monaca, Pa.) and an infinity lens (ISCO Precision Optics GMBH, Germany) in a glass square column. The cell enrichment factor can be defined as the ratio of total LDH concentration in the foam liquid to that in the bulk liquid after lysing all the cells.
Consistent with the techniques used by Ma et al. (2004), the effectiveness of the protective compositions with respect to cell-bubble interactions was evaluated using the bubble collection device. Prior to the studies with cells, the size of the bubbles generated using a sintered glass sparger and a 22 gauge needle and two different concentrations of the PF-68® comparative material and the protective composition NM were determined.

red blood cells = conditions: cited from earlier work

SMILES	CMC [1]	HEAD GROUP SIZE [1]	CMC SURFACE TENSION [1]	other results
OC[C@H]1O[C@H](O[C@H]2[C@H](O)[C@@H](O)[C@H](OCCCCC3CCCCC3)O[C@@H]2CO)[C@H](O)[C@@H](O)[C@@H]1O [CM4, 4-Cyclohexyl-1-butyl-β-D-maltoside]	7.6 mM			
CCCCCCCCCCCCCCCC[N+](C)(C)C.[Br-] [CTAB, Hexadecyltrimethyl ammonium bromide]	1.3 mM			Cytotoxicity (inhibition of cell growth, fluorescence intensity) [2]: most toxic to cells; Microscopic observation of cells [2]: completely lysed the cells
CCCCCCCCCCCC[N+](C)(C)[O-] [DDAO, N,N-Dimethyldodecyl amine N-oxide]	2.0 mM			
CCCCCCCCCC[N+](C)(C)[O-] [DDeAO, N,N-Dimethyldecyl amine N-oxide]	6.4 mM			
CCCCCCCCCCO[C@@H]1O[C@H](CO)[C@@H](O)[C@H](O)[C@H]1O [DG, n-Decyl-β-D-glucopyranoside]	2.3 mM	32 Å^2	31.5 DYN/CM	Toxicity relative to maltose head group analogue of same alkyl chain length [2]: more toxic
CCCCCCCCCCO[C@@H]1O[C@H](CO)[C@@H](O[C@H]2O[C@H](CO)[C@@H](O)[C@H](O)[C@H]2O)[C@H](O)[C@H]1O [DM, n-Decyl-β-D-maltopyranoside]	1.8 mM	42 Å^2	38.9 DYN/CM	Time to achieve equilibrium surface tension [3]: approximately 0.5 second; Maximum concentration before inhibitory effects on cell growth was observed [4]: 0.28 g/L; Effect on decrease of the enrichment factor (CHO K1 cells; 0.28 g/L): less than PF-68® comparative material and the protective composition NM
CCCCCCCCCCCC[N+](C)(C)C.[Br-] [DTAB, Dodecyltrimethyl ammonium bromide]	7.0 mM			Cytotoxicity (inhibition of cell growth, fluorescence intensity) ([2]; 0.01 CMC and 0.1 CMC, 48 hours): most toxic to cells; Microscopic observation of cells ([2]; at the lowest concentration): completely lysed the cells
CCCCCCCCCO[C@@H]1O[C@H](CO)[C@@H](O[C@H]2O[C@H](CO)[C@@H](O)[C@H](O)[C@H]2O)[C@H](O)[C@H]1O [NM, n-Nonyl-β-D-maltopyranoside]	6 mM	59 Å^2	40.1 DYN/CM	Median Diameter of bubbles ([5]; 22 gauge needle (large bubble), 0.6 g/L): 2.7 mm; Median Diameter of bubbles ([5]; 22 gauge needle (large bubble), 1.0 g/L): 2.5 mm; Median Diameter of bubbles ([5]; sintered glass sparger (microbubble), 0.6 g/L): 159 μm; Median Diameter of bubbles ([5]; sintered glass sparger (microbubble), 1.0 g/L): 157 μm; Maximum concentration before inhibitory effects on cell growth was observed [4]: 1.0 g/L; Effect on cell enrichment factor (CHO K1 cells; 1.0 g/L): slightly decreases the enrichments factor further
CCCCCCCCO[C@@H]1O[C@H](CO)[C@@H](O)[C@H](O)[C@H]1O [OG, n-Octyl-β-D-glucopyranoside]	27.1 mM	40 Å^2	32.5 DYN/CM	Toxicity relative to maltose head group analogue of same alkyl chain length [2]: more toxic
CCCCCCCCO[C@@H]1O[C@H](CO)[C@@H](O[C@H]2O[C@H](CO)[C@@H](O)[C@H](O)[C@H]2O)[C@H](O)[C@H]1O [OM, n-Octyl-β-D-maltopyranoside]	24.5 mM	61 Å^2	41.5 DYN/CM	Toxicity to red blood cells (red blood cells): less toxic to red blood cells than the OG comparative material; Maximum concentration before inhibitory effects on cell growth was observed [4]: 3.5 g/L
CCCCCCCCS[C@@H]1O[C@H](CO)[C@@H](O)[C@H](O)[C@H]1O [OT, n-Octyl-β-D-thioglucopyranoside]	11.0 mM			
CCCCCCCCCCCCOS(=O)(=O)[O-].[Na+] [SDS, Sodium dodecyl sulfate]	2.3 mM			Cytotoxicity (inhibition of cell growth, fluorescence intensity) ([2]; 0.01 CMC and 0.1 CMC, 48 hours): inhibitory
CCCCCCCCCCOS(=O)(=O)[O-].[Na+] [SDeS, Sodium decyl sulfate]	12.2 mM			
CCCCCCCCOS(=O)(=O)[O-].[Na+] [SOS, Sodium octyl sulfate]	85.6 mM			
